Laboratory results from patent publication US7084155B2, “Chemokine receptor binding heterocyclic compounds” (AnorMED, priority 2000, dated 2006).

Key:
Assay type in all cases: cell-based
[1] = tested on: SDF-1 induced Ca flux in SUP-T1 cells; assay: Inhibition of chemokine (SDF-1) induced Ca flux measured on a FLIPR; conditions: Homo sapiens
Method in brief: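 Fluo-3-loaded SUP-T1 cells (3×10^5 per well) preincubated with compound for 10 min at 37° C in HBSS/20 mM Hepes/0.2% BSA, pH 7.4, then stimulated with SDF-1. Fluorescence read on a FLIPR for 4 min after a 20-second baseline.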

HIV-1 BaL = assay: Inhibition of HIV-1 BaL (CCR5 using) replication in PHA-stimulated PBMC's, viral p24 antigen expression; conditions: Human immunodeficiency virus 1, BAL
HIV-1 NL4.3 or IIIB = assay: Inhibition of HIV-1 (NL4.3 or IIIB, CXCR4 using) replication in MT-4 cells, MTT viability; conditions: Human immunodeficiency virus 1, IIIB, MT4, concentration protecting 50% of virus-infected cells against viral cytopathicity
Method in brief: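 MT-4 cells infected at MOI 0.01 (100 × CCID50) with test compound at various concentrations, cytotoxicity run in parallel on uninfected cells. Viable cells quantified by MTT colorimetry after 5 days of proliferation. EC50 is the concentration protecting 50% of infected cells from viral cytopathicity.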

| SMILES | inhibition at 20 µg/mL [1] | EC50 (HIV-1 BaL) | EC50 (HIV-1 NL4.3 or IIIB) |
| --- | --- | --- | --- |
| c1ccc(CNCc2ccc(CN[C@H]3CCCC[C@@H]3NCc3ccccn3)cc2)nc1 (relative stereo) [Example 133, N-(2-pyridinylmethyl)-N′-[trans-2-[(pyridin-2-ylmethyl)amino]cyclohexyl]-1,4-benzenedimethanamine] | > 20% | < 20 µg/mL | < 20 µg/mL |
| O=[N+]([O-])c1ccc(-c2cnc(CN(Cc3ccc(CNCc4ccccn4)cc3)C3CCCc4cccnc43)[nH]2)cc1 (stereo not drawn) [Example 27, N-(2-pyridinylmethyl)-N′-[4-(4-nitrophenyl)-1H-imidazol-2-ylmethyl]-N′-(5,6,7,8-tetrahydro-8-quinolinyl)-1,4-benzenedimethanamine] | > 20% | < 20 µg/mL | < 20 µg/mL |
